Patent US20220257621A1, “CANCER CELL PROLIFERATION SUPPRESSION AGENT AND COMPOSITION FOR SUPPRESSING PROLIFERATION OF CANCER CELLS” (SHOWA DENKO K.K., priority 2019, published 2022)

Key:
[1] = system: normal human epidermal keratinocytes (NHEK); test: Effect (2) of suppressing ROS production, inositol derivative and Na tocopherol phosphate; assay type: cell-based; conditions: Na tocopherol phosphate 10 μM and/or inositol derivative 0.001% by mass 24 h, then atmospheric dust 500 μg/mL 48 h, control without dust = 1, dust + 0.05% ethanol = 2.41
Description: The effect of the inositol derivative and Na tocopherol phosphate on suppressing ROS production in normal human epidermal keratinocytes (NHEK, manufactured by KURABO INDUSTRIES LTD.) was measured under the following conditions. As the following Na tocopherol phosphate, TPNa (registered trademark) (manufactured by Showa Denko K. K.), which is sodium d1-α-tocopheryl phosphate, was used.
The NHEK cells were seeded in a HuMedia KG2 medium manufactured by KURABO INDUSTRIES LTD. at the seeding density of 10000 cells/cm^2, and cultured for 24 hours under the conditions of 37° C. and 5% CO2. Next, Na tocopherol phosphate alone (final concentration of 10 μM in the culture medium), the inositol derivative alone (final concentration of 0.001% by mass in the culture medium), or a combination of Na tocopherol phosphate (final concentration of 10 μM in the culture medium) and the inositol derivative (final concentration of 0.001% by mass in the culture medium) was added to the culture medium. […] Thereafter, the ROS production amount was measured using a ROS assay kit (manufactured by OZ BIOSCIENCES). […] After washing the cells with PBS again, 100 μL of PBS was added, and the fluorescence intensity at an excitation wavelength of 485 nm/an absorption wavelength of 535 nm was measured with a microplate reader i-Control (manufactured by Tecan Group Ltd.). […]

[2] = system: cell line derived from Lewis lung carcinoma (LLC); test: Effect (2) of suppressing proliferation of cancer cells, inositol derivative and Na tocopherol phosphate (WST-8); assay type: cell-based; conditions: Na tocopherol phosphate 10 μM and/or inositol derivative 0.001% by mass 24 h, then atmospheric dust 500 μg/mL 48 h, control without dust = 1, dust + 0.05% ethanol = 1.69
Description: The effect of the inositol derivative and Na tocopherol phosphate on suppressing the proliferation of cancer cells in a cell line derived from Lewis lung carcinoma (LLC, JCRB Cell Bank) was measured under the following conditions. As the following Na tocopherol phosphate, TPNa (registered trademark) (manufactured by Showa Denko K. K.), which is sodium d1-α-tocopheryl phosphate, was used.
The LLC cells were seeded at the seeding density of 50000 cells/cm^2 in a culture medium in which a Ham F10 medium and an L15 medium (both manufactured by Sigma-Aldrich) were mixed at the ratio of 3:7 (volume ratio), and cultured for 24 hours under the conditions of 37° C. and 5% CO2. Next, Na tocopherol phosphate alone (final concentration of 10 μM in the culture medium), the inositol derivative alone (final concentration of 0.001% by mass in the culture medium), or a combination of Na tocopherol phosphate (final concentration of 10 μM in the culture medium) and the inositol derivative (final concentration of 0.001% by mass in the culture medium) was added to the culture medium. […] Thereafter, the culture medium was replaced with a medium containing 10% (V/V) of WST-8 of Nacalai Tesque Inc., and after further culturing for 3 hours, the absorbance at the wavelength of 450 nm was measured with a microplate reader i-Control (manufactured by Tecan Group Ltd.). […]

Compound: Cc1c(C)c2c(c(C)c1OP(=O)([O-])[O-])CCC(C)(CCCC(C)CCCC(C)CCCC(C)C)O2.[Na+].[Na+] (stereo not drawn) [Na tocopherol phosphate, sodium d1-α-tocopheryl phosphate]
- Relative ROS production amount [1]: 1.53
- Relative cell proliferation amount [2]: 1.33
